Data as given in patent publication US7855228B2, “Antibiotics targeting MreB” (The Board of Trustees of the Leland Stamford Junior …, priority 2005, dated 2010).
≈ marks a conversion by molar mass, not a printed value. Read-outs that look alike come from different tables or passages of the source.

Assays:
Caulobacter crescentus = experiment: Caulobacter growth (optical density, doubling time); assay type: cell-based; settings: for Doubling in A22 in WT Genetic Background / Doubling Time in A22 / Doubling in A22 when Replaced by WT mreB: cell mass over 6 hr, A660
Description: Similar volumes of solvent (methanol) alone had no effect on growth. […] This rapid effect on cell growth could be due to a disruption in cell wall deposition or could reflect a secondary response to some other cellular perturbation.
MreB Is the Direct Target of A22. To identify the cellular target(s) of A22, we carried out a screen for A22-resistant mutants by growing large numbers of Caulobacter on plates containing 10 μg/ml A22. We independently isolated 20 mutants that stably and repeatedly formed colonies on plates containing 10 μg/ml A22 and grew in liquid culture containing 10 μg/ml A22. Since MreB was proposed as a possible target of A22, we PCR-amplified and sequenced the mreB gene in the 20 A22-resistant strains and a control wild-type strain. Each of the 20 A22-resistant strains contained a single missense point mutation in its mreB gene, whereas the wild-type A22-sensitive strain had no mreB point mutations (Table 2). Though isolated independently, the 20 strains had only 7 different point mutations: one specific point mutation was found in 10 of the strains, another specific point mutation was found in 5 of the strains, and 5 additional point mutations were found in 1 strain each. Since all 7 of these mutations affected amino acids that are conserved between Caulobacter MreB and Thermotoga maritima MreB, they could be mapped onto the solved three-dimensional structure of T. maritima MreB. […] All of the resistant strains grow at a similar rate in rich PYE medium (w115 min/doubling), which is slower than wild-type cells without drug (87 min/doubling), but they are largely unaffected by the presence of A22 (w115 min/doubling) (Table 2).
Bacterial Strains and Growth Conditions. Caulobacter crescentus strains CB15N and derivatives were grown in PYE or M2G medium or agar plates supplemented with the appropriate combinations of antibiotics, glucose, xylose, A22, and the A22 diluent, methanol. The FROS strains labeled at both the origin and CC2943, CC3300, CC3656, and CC0091, or singly labeled at CC0786, and CC3192 were generated and characterized in a previous study, where they were referred to as MPO40, MPO53, MPO7, MPO133, MP156, and MP82, respectively. Growth and analysis conditions for the mreB depletion, holB:gfp, and FROS strains have been previously described. The methods for ΦCr30-mediated generalized phage transduction and swarmer cell isolation by Percoll density gradient centrifugation have also been described. Washes were performed by micro centrifugation at 8000 g. Twenty independent A22-resistant Caulobacter mutants were isolated by growing 20 single CB15N colonies overnight and plating 10^9 cells per culture on PYE plates containing 10 μg/ml A22. One A22-resistant colony from each plate was isolated, retested, and characterized. To sequence the mreB gene from these strains, mreB was PCR-amplified and the resulting band was gel-purified (Qiagen) and sequenced. Overlay PCR mutagenesis was used to introduce the […] point mutation (A509G) into the previously described PxyI:gfp:mreB construct.

S. typhimurium NBRC13245 = experiment: Determination of minimum inhibitory concentration (MIC); assay type: cell-based, Salmonella typhimurium; settings: Salmonella enterica, read-out: MIC S. typhimurium
Method in brief: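 Two-fold serial agar dilution on L agar and also on Mueller Hinton agar (pH 7.3); 10 µl of stationary-phase culture diluted in 0.85% NaCl to 10^6 cells/ml spotted per plate. MIC taken as lowest concentration inhibiting growth.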

MreB-GFP fusion protein = molecular target: T1, MreB-GFP fusion protein (Escherichia coli, UniProt P0A9X4); experiment: MreB helical structures in vivo (MreB-GFP); assay type: cell-based, E. coli; settings: 10 μg/ml
T1 construct: expressed in transfected cells; host or cells: E. coli JM109 carrying pMreB1-GFP (native mreB promoter)
Description: FIG. 11. In vivo effects of A22. Exponentially growing JM109/pMreB1-GFP cells were treated with 10 μg/ml of A22, and changes in cell shape and GFP fluorescence were observed. (a, b) no treatment; (c, d) 30 min after A22 treatment; (e, f) 60 min after A22 treatment; (g, h) 120 min after A22 treatment.
It was recently shown that the MreB forms helical structures in E. coli as well as B. subtilis. […] In rounded cells, MreB-GFP appeared as discrete dots located close to the cell surface (FIGS. 11e-11h), which may be the result of aggregation of MreB-GFP protein de-polymerized by A22.
Construction of a mreB-gfp fusion plasmid A DNA fragment encoding the wild-type mreB gene was PCR-amplified from pMreB1 with primers (SEQ ID NO:5) 5′-[…]-3′ and (SEQ ID NO:6) 5′-[…]-3′. After cutting with Xba I and Nhe I, the PCR-generated DNA fragments were ligated to an XbaI-NheI-cut gfp vector pQIB-T7-GFP (Qbiogene Inc., Irvine, Calif., USA), resulting in an mreB-gfp translational fusion. From the resulting plasmid, an Aor51HI-HindIII fragment encoding the C-terminal portion of MreB fused with GFP was isolated and used to replace the Aor51HI-HindIII fragment of pMreB1, resulting in a plasmid pMreB1-GFP that expresses the MreB-GFP fusion protein from the native mreB promoter. […]

T1 sequence (P0A9X4 whole entry, the tested form may be a part): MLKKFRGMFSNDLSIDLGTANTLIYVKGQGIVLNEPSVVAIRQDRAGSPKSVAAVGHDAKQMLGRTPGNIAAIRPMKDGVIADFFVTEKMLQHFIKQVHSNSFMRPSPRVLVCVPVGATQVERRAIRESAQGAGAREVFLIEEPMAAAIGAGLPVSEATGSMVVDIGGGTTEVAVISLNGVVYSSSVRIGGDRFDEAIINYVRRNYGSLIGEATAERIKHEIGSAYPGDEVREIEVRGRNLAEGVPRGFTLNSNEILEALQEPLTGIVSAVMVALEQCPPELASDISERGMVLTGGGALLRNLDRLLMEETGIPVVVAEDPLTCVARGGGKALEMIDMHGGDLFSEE

## N=C(N)SCc1ccc(Cl)c(Cl)c1 [Compound 1, S-(3,4-dichlorobenzyl)isothiourea]
Caulobacter crescentus; 0.1-100 μg/ml, up to 6 hr
  Effect on growth of Caulobacter cultures: slowed growth in a dose-dependent fashion
Caulobacter crescentus; mreB allele: A325P
  Doubling in A22 in WT Genetic Background: 115′
Caulobacter crescentus; mreB allele: D16G
  Doubling in A22 in WT Genetic Background: 112′
Caulobacter crescentus; mreB allele: D192G
  Doubling in A22 in WT Genetic Background: 116′
Caulobacter crescentus; mreB allele: L23R
  Doubling in A22 in WT Genetic Background: 120′
Caulobacter crescentus; mreB allele: None (wt)
  Doubling in A22 in WT Genetic Background: 156′
Caulobacter crescentus; mreB allele: P112S
  Doubling in A22 in WT Genetic Background: 119′
Caulobacter crescentus; mreB allele: T167A
  Doubling in A22 in WT Genetic Background: 105′
Caulobacter crescentus; mreB allele: V324A
  Doubling in A22 in WT Genetic Background: 115′
Caulobacter crescentus; mreB mutation: A325P
  Doubling Time in A22: 116′
Caulobacter crescentus; mreB mutation: D16G
  Doubling Time in A22: 115′
Caulobacter crescentus; mreB mutation: D192G
  Doubling Time in A22: 118′
Caulobacter crescentus; mreB mutation: L23R
  Doubling Time in A22: 121′
Caulobacter crescentus; mreB mutation: None (wt)
  Doubling Time in A22: 148′
Caulobacter crescentus; mreB mutation: P112S
  Doubling Time in A22: 118′
Caulobacter crescentus; mreB mutation: T167A
  Doubling Time in A22: 110′
Caulobacter crescentus; mreB mutation: V324A
  Doubling Time in A22: 113′
Caulobacter crescentus; rich PYE medium
  Time after A22 treatment at which a decline in growth rate was observed: 30 min
Caulobacter crescentus; strain: A325P
  Doubling in A22 when Replaced by WT mreB: 144′
Caulobacter crescentus; strain: D16G
  Doubling in A22 when Replaced by WT mreB: 150′
Caulobacter crescentus; strain: None (wt)
  Doubling in A22 when Replaced by WT mreB: 145′
Caulobacter crescentus; strain: P112S
  Doubling in A22 when Replaced by WT mreB: 146′
Caulobacter crescentus; strain: T167A
  Doubling in A22 when Replaced by WT mreB: 148′
Caulobacter crescentus; strain: V324A
  Doubling in A22 when Replaced by WT mreB: 142′
S. typhimurium NBRC13245; Example 2, methods as in Example 1
  MIC: 3.13 µg/mL (≈ 13.3 µM)
S. typhimurium NBRC13245; Table 1, NBRC13245
  MIC: 3.13 µg/mL (≈ 13.3 µM)
MreB-GFP fusion protein; 30-minute treatment, JM109 cells
  MreB-GFP dots and bands (helical structures): fluorescent dots and bands disappeared
MreB-GFP fusion protein; after 120 minutes
  Cell shape of MreB-GFP expressing JM109 cells: almost spherical
